# Reference: ChEMBL document CHEMBL5500396, “Discovery, Multiparametric Optimization, and Solid-State Driven Identification of CHF-6550, a Novel Soft Dual Pharmacology Muscarinic Antagonist and β2 Agonist (MABA) for the Inhaled Treatment of Respiratory Diseases” (J Med Chem, 2024)
# System: not listed separately
# Experiment: in vitro
# Conditions: rat, plasma
# Description: Stability in rat plasma assessed as half-life at 5 uM incubated for 120 mins by LC-MS/MS analysis
row,SMILES,"half-life at 2 h, 5 µM"
1,O=C(NCCCOc1cccc([C@](O)(C(=O)OC[C@@H]2CCN(Cc3ccccc3)C2)c2ccccc2)c1)c1ccc(CNC[C@H](O)c2ccc(O)c3[nH]c(=O)ccc23)cc1,0.25 h
2,COc1cc(C(=O)N2CCC(c3cccc([C@](O)(C(=O)OCC4CCN(Cc5ccccc5)CC4)c4ccccc4)c3)CC2)ccc1CNC[C@H](O)c1ccc(O)c2[nH]c(=O)ccc12,> 2.5 h
3,COc1cc(C(=O)NCCCOc2cccc([C@](O)(C(=O)O[C@@H]3CCCN(C)C3)c3ccccc3)c2)ccc1CNC[C@H](O)c1ccc(O)c2[nH]c(=O)ccc12,0.283 h
4,COc1cc(C(=O)NCCCOc2cccc([C@](O)(C(=O)O[C@@H]3CCCN(C)C3)c3ccccc3)c2)c(Cl)cc1CNC[C@H](O)c1ccc(O)c2[nH]c(=O)ccc12,0.9 h
5,COc1cc(CNC[C@H](O)c2ccc(O)c3[nH]c(=O)ccc23)c(Cl)cc1C(=O)NCCCOc1cccc([C@](O)(C(=O)O[C@@H]2CCCN(C)C2)c2ccccc2)c1,2.17 h
6,O=C(NCCCOc1cccc([C@](O)(C(=O)O[C@H]2CCCN(Cc3ccccc3)C2)c2ccccc2)c1)c1ccc(CNC[C@H](O)c2ccc(O)c3[nH]c(=O)ccc23)cc1.O=CO,0.183 h
7,COc1cc(C(=O)NCCCOc2cccc([C@](O)(C(=O)O[C@@H]3CCCN(C)C3)c3ccccc3)c2)c(OC)cc1CNC[C@H](O)c1ccc(O)c2[nH]c(=O)ccc12,> 2.5 h

# System: not listed separately
# Experiment: in vitro
# Conditions: rat, hepatocytes
# Description: Metabolic stability in rat hepatocytes assessed as clearance measured per 10^6 cells at 1 uM incubated for 90 mins by LC-MS/MS analysis
row,SMILES,"hepatocyte CLint at 1.5 h, 1 µM"
1,O=C(NCCCOc1cccc([C@](O)(C(=O)OC[C@@H]2CCN(Cc3ccccc3)C2)c2ccccc2)c1)c1ccc(CNC[C@H](O)c2ccc(O)c3[nH]c(=O)ccc23)cc1,37 µL/min/1e6 cells
2,COc1cc(C(=O)N2CCC(c3cccc([C@](O)(C(=O)OCC4CCN(Cc5ccccc5)CC4)c4ccccc4)c3)CC2)ccc1CNC[C@H](O)c1ccc(O)c2[nH]c(=O)ccc12,29 µL/min/1e6 cells
3,COc1cc(C(=O)NCCCOc2cccc([C@](O)(C(=O)O[C@@H]3CCCN(C)C3)c3ccccc3)c2)ccc1CNC[C@H](O)c1ccc(O)c2[nH]c(=O)ccc12,29 µL/min/1e6 cells
4,COc1cc(C(=O)NCCCOc2cccc([C@](O)(C(=O)O[C@@H]3CCCN(C)C3)c3ccccc3)c2)c(Cl)cc1CNC[C@H](O)c1ccc(O)c2[nH]c(=O)ccc12,36 µL/min/1e6 cells
5,COc1cc(CNC[C@H](O)c2ccc(O)c3[nH]c(=O)ccc23)c(Cl)cc1C(=O)NCCCOc1cccc([C@](O)(C(=O)O[C@@H]2CCCN(C)C2)c2ccccc2)c1,66 µL/min/1e6 cells
6,O=C(NCCCOc1cccc([C@](O)(C(=O)O[C@H]2CCCN(Cc3ccccc3)C2)c2ccccc2)c1)c1ccc(CNC[C@H](O)c2ccc(O)c3[nH]c(=O)ccc23)cc1.O=CO,53 µL/min/1e6 cells
7,COc1cc(C(=O)NCCCOc2cccc([C@](O)(C(=O)O[C@@H]3CCCN(C)C3)c3ccccc3)c2)c(OC)cc1CNC[C@H](O)c1ccc(O)c2[nH]c(=O)ccc12,61 µL/min/1e6 cells

# Biological target: Beta-2 adrenergic receptor (Homo sapiens, UniProt P07550)
# Experiment: not given
# Conditions: not given
# Beta-2 adrenergic receptor, sequence (P07550 whole entry): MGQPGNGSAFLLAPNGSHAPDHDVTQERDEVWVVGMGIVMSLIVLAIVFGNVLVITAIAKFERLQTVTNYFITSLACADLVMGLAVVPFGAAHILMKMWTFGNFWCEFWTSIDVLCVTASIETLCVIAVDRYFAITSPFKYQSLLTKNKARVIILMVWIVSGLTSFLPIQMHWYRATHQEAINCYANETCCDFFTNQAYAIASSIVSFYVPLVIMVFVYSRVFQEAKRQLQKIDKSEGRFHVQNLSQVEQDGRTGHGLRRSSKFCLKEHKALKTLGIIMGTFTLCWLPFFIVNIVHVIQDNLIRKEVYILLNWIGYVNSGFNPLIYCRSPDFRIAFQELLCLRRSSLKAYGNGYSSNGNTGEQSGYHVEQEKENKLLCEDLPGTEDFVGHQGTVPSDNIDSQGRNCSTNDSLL
row,SMILES,Ki
1,O=C(NCCCOc1cccc([C@](O)(C(=O)OC[C@@H]2CCN(Cc3ccccc3)C2)c2ccccc2)c1)c1ccc(CNC[C@H](O)c2ccc(O)c3[nH]c(=O)ccc23)cc1,0.0794 nM
2,COc1cc(C(=O)N2CCC(c3cccc([C@](O)(C(=O)OCC4CCN(Cc5ccccc5)CC4)c4ccccc4)c3)CC2)ccc1CNC[C@H](O)c1ccc(O)c2[nH]c(=O)ccc12,0.501 nM
3,COc1cc(C(=O)NCCCOc2cccc([C@](O)(C(=O)O[C@@H]3CCCN(C)C3)c3ccccc3)c2)ccc1CNC[C@H](O)c1ccc(O)c2[nH]c(=O)ccc12,0.0158 nM
4,COc1cc(C(=O)NCCCOc2cccc([C@](O)(C(=O)O[C@@H]3CCCN(C)C3)c3ccccc3)c2)c(Cl)cc1CNC[C@H](O)c1ccc(O)c2[nH]c(=O)ccc12,0.0251 nM
5,COc1cc(CNC[C@H](O)c2ccc(O)c3[nH]c(=O)ccc23)c(Cl)cc1C(=O)NCCCOc1cccc([C@](O)(C(=O)O[C@@H]2CCCN(C)C2)c2ccccc2)c1,0.1 nM
6,O=C(NCCCOc1cccc([C@](O)(C(=O)O[C@H]2CCCN(Cc3ccccc3)C2)c2ccccc2)c1)c1ccc(CNC[C@H](O)c2ccc(O)c3[nH]c(=O)ccc23)cc1.O=CO,0.501 nM
7,COc1cc(C(=O)NCCCOc2cccc([C@](O)(C(=O)O[C@@H]3CCCN(C)C3)c3ccccc3)c2)c(OC)cc1CNC[C@H](O)c1ccc(O)c2[nH]c(=O)ccc12,0.0631 nM

# System: not listed separately
# Experiment: in vitro
# Conditions: guinea pig, plasma
# Description: Stability in guinea pig plasma assessed as half-life at 5 uM incubated for 120 mins by LC-MS/MS analysis
row,SMILES,"half-life at 2 h, 5 µM"
1,O=C(NCCCOc1cccc([C@](O)(C(=O)OC[C@@H]2CCN(Cc3ccccc3)C2)c2ccccc2)c1)c1ccc(CNC[C@H](O)c2ccc(O)c3[nH]c(=O)ccc23)cc1,0.967 h
2,COc1cc(C(=O)N2CCC(c3cccc([C@](O)(C(=O)OCC4CCN(Cc5ccccc5)CC4)c4ccccc4)c3)CC2)ccc1CNC[C@H](O)c1ccc(O)c2[nH]c(=O)ccc12,0.583 h
3,COc1cc(C(=O)NCCCOc2cccc([C@](O)(C(=O)O[C@@H]3CCCN(C)C3)c3ccccc3)c2)ccc1CNC[C@H](O)c1ccc(O)c2[nH]c(=O)ccc12,1.87 h
4,COc1cc(C(=O)NCCCOc2cccc([C@](O)(C(=O)O[C@@H]3CCCN(C)C3)c3ccccc3)c2)c(Cl)cc1CNC[C@H](O)c1ccc(O)c2[nH]c(=O)ccc12,2.22 h
5,COc1cc(CNC[C@H](O)c2ccc(O)c3[nH]c(=O)ccc23)c(Cl)cc1C(=O)NCCCOc1cccc([C@](O)(C(=O)O[C@@H]2CCCN(C)C2)c2ccccc2)c1,> 2.5 h
6,O=C(NCCCOc1cccc([C@](O)(C(=O)O[C@H]2CCCN(Cc3ccccc3)C2)c2ccccc2)c1)c1ccc(CNC[C@H](O)c2ccc(O)c3[nH]c(=O)ccc23)cc1.O=CO,0.25 h
7,COc1cc(C(=O)NCCCOc2cccc([C@](O)(C(=O)O[C@@H]3CCCN(C)C3)c3ccccc3)c2)c(OC)cc1CNC[C@H](O)c1ccc(O)c2[nH]c(=O)ccc12,> 2.5 h

# System: not listed separately
# Experiment: in vitro
# Conditions: human, hepatocytes
# Description: Metabolic stability in human hepatocytes assessed as clearance measured per 10^6 cells at 1 uM incubated for 90 mins by LC-MS/MS analysis
row,SMILES,"hepatocyte CLint at 1.5 h, 1 µM"
1,O=C(NCCCOc1cccc([C@](O)(C(=O)OC[C@@H]2CCN(Cc3ccccc3)C2)c2ccccc2)c1)c1ccc(CNC[C@H](O)c2ccc(O)c3[nH]c(=O)ccc23)cc1,5 µL/min/1e6 cells
2,COc1cc(C(=O)N2CCC(c3cccc([C@](O)(C(=O)OCC4CCN(Cc5ccccc5)CC4)c4ccccc4)c3)CC2)ccc1CNC[C@H](O)c1ccc(O)c2[nH]c(=O)ccc12,28 µL/min/1e6 cells
3,COc1cc(C(=O)NCCCOc2cccc([C@](O)(C(=O)O[C@@H]3CCCN(C)C3)c3ccccc3)c2)ccc1CNC[C@H](O)c1ccc(O)c2[nH]c(=O)ccc12,4 µL/min/1e6 cells
4,COc1cc(C(=O)NCCCOc2cccc([C@](O)(C(=O)O[C@@H]3CCCN(C)C3)c3ccccc3)c2)c(Cl)cc1CNC[C@H](O)c1ccc(O)c2[nH]c(=O)ccc12,6 µL/min/1e6 cells
5,COc1cc(CNC[C@H](O)c2ccc(O)c3[nH]c(=O)ccc23)c(Cl)cc1C(=O)NCCCOc1cccc([C@](O)(C(=O)O[C@@H]2CCCN(C)C2)c2ccccc2)c1,7 µL/min/1e6 cells
6,O=C(NCCCOc1cccc([C@](O)(C(=O)O[C@H]2CCCN(Cc3ccccc3)C2)c2ccccc2)c1)c1ccc(CNC[C@H](O)c2ccc(O)c3[nH]c(=O)ccc23)cc1.O=CO,19 µL/min/1e6 cells
7,COc1cc(C(=O)NCCCOc2cccc([C@](O)(C(=O)O[C@@H]3CCCN(C)C3)c3ccccc3)c2)c(OC)cc1CNC[C@H](O)c1ccc(O)c2[nH]c(=O)ccc12,6 µL/min/1e6 cells

# Biological target: Muscarinic acetylcholine receptor M3 (Homo sapiens, UniProt P20309)
# Experiment: not given
# Conditions: not given
# Muscarinic acetylcholine receptor M3, sequence (P20309 whole entry): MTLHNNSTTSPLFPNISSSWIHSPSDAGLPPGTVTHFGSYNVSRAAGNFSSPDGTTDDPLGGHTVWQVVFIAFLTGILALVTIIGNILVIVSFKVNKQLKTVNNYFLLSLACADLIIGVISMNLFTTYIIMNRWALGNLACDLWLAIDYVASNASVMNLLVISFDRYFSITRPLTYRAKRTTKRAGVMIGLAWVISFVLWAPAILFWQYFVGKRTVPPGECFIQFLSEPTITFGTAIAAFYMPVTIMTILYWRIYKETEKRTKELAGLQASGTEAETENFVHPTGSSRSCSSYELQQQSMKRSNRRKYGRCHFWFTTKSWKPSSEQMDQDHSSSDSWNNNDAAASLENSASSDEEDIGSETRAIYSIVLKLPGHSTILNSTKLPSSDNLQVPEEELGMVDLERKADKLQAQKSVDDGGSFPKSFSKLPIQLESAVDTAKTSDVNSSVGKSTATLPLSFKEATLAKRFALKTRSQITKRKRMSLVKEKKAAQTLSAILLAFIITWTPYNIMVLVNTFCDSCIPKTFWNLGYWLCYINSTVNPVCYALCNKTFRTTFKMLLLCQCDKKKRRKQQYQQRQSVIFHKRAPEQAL
row,SMILES,Ki
1,COc1cc(C(=O)N2CCC(c3cccc([C@](O)(C(=O)OCC4CCN(Cc5ccccc5)CC4)c4ccccc4)c3)CC2)ccc1CNC[C@H](O)c1ccc(O)c2[nH]c(=O)ccc12,0.631 nM

# System: not listed separately
# Experiment: in vitro
# Conditions: human, plasma
# Description: Stability in human plasma assessed as half-life at 5 uM incubated for 120 mins by LC-MS/MS analysis
row,SMILES,"half-life at 2 h, 5 µM"
1,O=C(NCCCOc1cccc([C@](O)(C(=O)OC[C@@H]2CCN(Cc3ccccc3)C2)c2ccccc2)c1)c1ccc(CNC[C@H](O)c2ccc(O)c3[nH]c(=O)ccc23)cc1,> 2.5 h
2,COc1cc(C(=O)N2CCC(c3cccc([C@](O)(C(=O)OCC4CCN(Cc5ccccc5)CC4)c4ccccc4)c3)CC2)ccc1CNC[C@H](O)c1ccc(O)c2[nH]c(=O)ccc12,> 2.5 h
3,COc1cc(C(=O)NCCCOc2cccc([C@](O)(C(=O)O[C@@H]3CCCN(C)C3)c3ccccc3)c2)ccc1CNC[C@H](O)c1ccc(O)c2[nH]c(=O)ccc12,> 2.5 h
4,COc1cc(C(=O)NCCCOc2cccc([C@](O)(C(=O)O[C@@H]3CCCN(C)C3)c3ccccc3)c2)c(Cl)cc1CNC[C@H](O)c1ccc(O)c2[nH]c(=O)ccc12,> 2.5 h
5,COc1cc(CNC[C@H](O)c2ccc(O)c3[nH]c(=O)ccc23)c(Cl)cc1C(=O)NCCCOc1cccc([C@](O)(C(=O)O[C@@H]2CCCN(C)C2)c2ccccc2)c1,> 2.5 h
6,O=C(NCCCOc1cccc([C@](O)(C(=O)O[C@H]2CCCN(Cc3ccccc3)C2)c2ccccc2)c1)c1ccc(CNC[C@H](O)c2ccc(O)c3[nH]c(=O)ccc23)cc1.O=CO,> 2.5 h
7,COc1cc(C(=O)NCCCOc2cccc([C@](O)(C(=O)O[C@@H]3CCCN(C)C3)c3ccccc3)c2)c(OC)cc1CNC[C@H](O)c1ccc(O)c2[nH]c(=O)ccc12,> 2.5 h
